According to patent US5032597A, “Method of using phenylquinolinecarboxylic acids and derivatives for lymthoid leukemia treatment in a mammal” (priority 1987, dated 1991):
Converted amounts (≈) assume the structure as drawn. “And” between values parts separate entries of the source, which are not always exact repeats. Equal entries are not always repeated. Where two headings read alike, the source gives them in different places.

Tests used:
L1210 leukemia = assay: Lymphoid Leukemia L1210, survival of tumored mice; format: in vivo, CD2F1 mice; conditions: Mus musculus, L1210, ip, 720 h; for response vs control in vivo at 200 mg/kg: 200 mg/kg i.p.
In short: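 Male CD2 F1 mice, six per group, received 10^5 L1210 cells i.p. on day 0. Compounds in hydroxypropylcellulose, saline/Tween 80 or saline were given i.p. at various doses once daily on days 1-9, with vehicle controls.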

[1] = system: human colon carcinoma cells HCT-15; assay: Human colon tumor test in vitro, HCT-15 cell growth inhibition; format: cell-based; conditions: for IC50: Homo sapiens, HCT-15, 72 h, read-out: in vitro HCT-15 ID50 (50 percent inhibition of number of doublings); for in vitro HCT-15 ID50 (50 percent inhibition of number of doublings): 4320 min
In short: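 HCT-15 human colon adenocarcinoma cells in RPMI 1640 with 10% heat-inactivated FCS, compound added on day 1 and cells counted by hemocytometer on day 4. ID50 is the concentration (μg/ml) halving the number of doublings, from log-log dose-response plots.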

human colon tumor HCT-15 = assay: Human colon tumor HCT-15 in athymic mice; format: in vivo, Swiss NU/NU athymic mice; conditions: for Average Tumor Weight, Day 7 (day treatment was started) / Average Tumor Weight, Day 21 / Net Tumor Weight gain, Day 21 / Tumor Growth Inhibition, Day 21: 5 days from day 7; for toxicity: 40 mg/kg i.p., athymic mice
Method: The compounds of Example 1 and 91 were also tested for effectiveness against a human colon tumor implanted in athymic mice.
The animals used were Swiss NU/NU athymic mice, weighing 20-22 g each at the start of the test. The test group consisted of twelve mice, seven males and five females. The HCT-15 tumor cell line, derived from a patient with adenocarcinoma of the colon, was maintained in culture. The tumor was implanted in each of the test mice by the subcutaneous injection in the flank region of 0.2 ml of physiological saline containing 10^7 HCT-15 cultured cells. Tumors appeared within 72 hours and treatment started one week after tumor inoculation.
Test compounds, suspended in methocel (0.5% in water) or dissolved in water, were injected intraperitoneally once daily for five consecutive days starting on day seven relative to the day of tumor inoculation (day 0). The body weight and the size of the tumor were determined daily. Tumor size was determined by two-dimensional caliper measurements. Tumor weight was estimated from the formula: [formula] tumor weight in which 1=length and w=width of the tumor in mm. The net tumor weight was determined by subtracting from the actual tumor weight at the time of evaluation the initial estimated tumor weight at the time treatment was started (day 7). Drug effectiveness was assessed on the basis of inhibition of the gain in net tumor weight in the treated (T) compared to that of the control (C) mice. Percent tumor growth inhibition was calculated by the formula: [formula]

colon tumors = conditions: in vivo; cited from earlier work
melanotic melanoma B16 = assay: Melanotic Melanoma B16 test, survival of tumored mice; format: in vivo, B6C3F1 mice; conditions: for T/C × 100 (median survival time): 9 days, 2 tests
Method: The efficacy of the compounds of this invention against the transplanted mouse tumors was evaluated in test systems currently in use at the National Cancer Institute for the detection and assessment of anticancer activity. […] J. Cancer, 17, 129-142, (1981); Venditti, J. M., Seminars in Oncology, 8 (4) (1981); Goldin, A. and J. M. Venditti, in Recent Results in Cancer Research, 70, S. K. Carter and Y. Sakurai, Eds., Springer-Verlag, Berlin/Heidelberg, 1980].
The animals used were B6 C3 F1 mice, all of one sex, weighing a minimum of 18 g for males and 17 g for females and all within a 4 g weight range at the start of the test. The test group comprised 9 or 10 mice. The tumor was implanted in each of the test mice by the subcutaneous injection of 0.5 ml of a tumor homogenate prepared by homogenizing a 1 g portion of melanotic melanoma in 10 ml of cold physiological saline. The test compounds suspended in hydroxypropylcellulose were administered intraperitoneally at various doses once daily for nine consecutive days starting on day one relative to the day of tumor inoculation (day 0). The control mice received injections of hydroxypropylcellulose vehicle only. The mice were weighted and survivors were recorded on a regular basis for 60 days. The median survival times and the ratio of the median survival times for treated (T) to control (C) mice were calculated. The median survival time of the nontreated tumored mice ranged from 15 to 17 days. Drug effectiveness was assessed on the basis of the survival time. Results were expressed as a percentage of the control survival time (Survival Time T/C ×100%). The criterion for effectiveness was determined by: T/C ×100 ≥125 percent.

[2] = read-out: L1210 Leukemia % T/C (median survival time)
[3] = HCT-15 cells, compound day 1 to day 4

## O=c1[nH]cc(F)c(=O)[nH]1 [5-Fluorouracil, reference compound]
L1210 leukemia; [2]
  response vs control in vivo at 16 mg/kg: 228%
[1]
  IC50: 0.27 µg/mL (≈ 2.08 µM)
Human colon tumor HCT-15; 20 mg/kg i.p.
  effectiveness: ineffective
Human colon tumor HCT-15; 20 mg/kg i.p. once daily
  Average Tumor Weight, Day 7 (day treatment was started): 56.7 mg
  Average Tumor Weight, Day 21: 421.7 mg
  Net Tumor Weight gain, Day 21: 365 mg
  Tumor Growth Inhibition, Day 21: 0%
Human colon tumor HCT-15
  toxicity: Toxic
Human colon tumor HCT-15; listed as 5-Fluorouacil
  toxicity: toxic
Colon tumors
  effectiveness in treatment of colon tumors in man: not consistently effective

## N.N.[Cl][Pt][Cl] [Cisplatin, reference compound]
Melanotic melanoma B16; 1 mg/kg i.p. once daily
  T/C × 100 (median survival time): 175%
Melanotic melanoma B16; 2 mg/kg i.p. once daily
  T/C × 100 (median survival time): 212% and 136%
[1]; [3]
  in vitro HCT-15 ID50 (50 percent inhibition of number of doublings): 0.66 µg/mL

## Cc1c(-c2ccc(C3CCCCC3)cc2)nc2ccc(F)cc2c1C(=O)O [Example 1, 2-(4-Cyclohexylphenyl)-6-fluoro-3-methylquinoline-4-carboxylic acid]
Melanotic melanoma B16; 25 mg/kg i.p. once daily
  T/C × 100 (median survival time): 127% and 125%
Melanotic melanoma B16; 50 mg/kg i.p. once daily
  T/C × 100 (median survival time): 148% and 138%
Melanotic melanoma B16; 100 mg/kg i.p. once daily
  T/C × 100 (median survival time): 145% and 155%
Melanotic melanoma B16; 200 mg/kg i.p. once daily
  T/C × 100 (median survival time): 145% and 150%
Melanotic melanoma B16; 400 mg/kg i.p. once daily
  T/C × 100 (median survival time): 131% and 179%
Melanotic melanoma B16; criterion T/C × 100 ≥125 percent
  effectiveness against B16 melanoma in mice: effective against the B16 melanoma in mice
L1210 leukemia; [2]
  response vs control in vivo at 200 mg/kg: 189%
[1]; [3]
  in vitro HCT-15 ID50 (50 percent inhibition of number of doublings): 0.05 µg/mL
Human colon tumor HCT-15; 50 mg/kg i.p. once daily
  Average Tumor Weight, Day 7 (day treatment was started): 56.3 mg
  Average Tumor Weight, Day 21: 252.9 mg
  Net Tumor Weight gain, Day 21: 196.6 mg
  Tumor Growth Inhibition, Day 21: 33.1%
Human colon tumor HCT-15; 100 mg/kg i.p. once daily
  Average Tumor Weight, Day 7 (day treatment was started): 56.6 mg
  Average Tumor Weight, Day 21: 212.9 mg
  Net Tumor Weight gain, Day 21: 156.3 mg
  Tumor Growth Inhibition, Day 21: 46.8%
Human colon tumor HCT-15; 200 mg/kg i.p. once daily
  Average Tumor Weight, Day 7 (day treatment was started): 56.8 mg
  Average Tumor Weight, Day 21: 156.3 mg
  Net Tumor Weight gain, Day 21: 99.4 mg
  Tumor Growth Inhibition, Day 21: 66.2%

## Cc1c(-c2ccc(C3CCCCC3)cc2)nc2ccc(F)cc2c1C(=O)[O-].[Na+] [Example 91, Sodium 2-(4-Cyclohexylphenyl)-6-fluoro-3-methylquinoline-4-carboxylate]
L1210 leukemia; read-out: L1210 Leukemia % T/C (median survival time), 40 mg/kg i.p., marked * (not explained)
  response vs control in vivo at 40 mg/kg: 140%
L1210 leukemia; read-out: L1210 Leukemia % T/C (median survival time), 100 mg/kg i.p., nonoptimal Q1DX9 instead of Q3DX9
  response vs control in vivo at 100 mg/kg: 103%
[1]
  IC50: 0.04 µg/mL
Human colon tumor HCT-15; 10 mg/kg i.p. once daily
  Average Tumor Weight, Day 7 (day treatment was started): 56.8 mg
  Average Tumor Weight, Day 21: 322.8 mg
  Net Tumor Weight gain, Day 21: 266.0 mg
  Tumor Growth Inhibition, Day 21: 10.0%
Human colon tumor HCT-15; 20 mg/kg i.p. once daily
  Average Tumor Weight, Day 7 (day treatment was started): 56.2 mg
  Average Tumor Weight, Day 21: 245.1 mg
  Net Tumor Weight gain, Day 21: 188.9 mg
  Tumor Growth Inhibition, Day 21: 35.7%
Human colon tumor HCT-15; 40 mg/kg i.p. once daily
  Average Tumor Weight, Day 7 (day treatment was started): 56.8 mg
  Average Tumor Weight, Day 21: 256.9 mg
  Net Tumor Weight gain, Day 21: 200.1 mg
  Tumor Growth Inhibition, Day 21: 32.0%

## Cc1c(-c2ccc(-c3ccc(F)cc3F)cc2)nc2ccc(F)cc2c1C(=O)O [Example 188]
L1210 leukemia; 12.5 mg/kg i.p., read-out: L1210 Leukemia % T/C (median survival time)
  response vs control in vivo at 12.5 mg/kg: 187%
[1]; [3]
  IC50: < 0.01 µg/mL

## Cc1c(-c2ccc(-c3ccc(O)cc3)cc2)nc2ccc(Cl)cc2c1C(=O)O [Example 192, 6-Chloro-2-(4'-hydroxy-1,1'biphenyl-4-yl)-3-methyl-4-quinolinecarboxylic acid]
L1210 leukemia; [2]
  response vs control in vivo at 200 mg/kg: 166%
[1]; [3]
  IC50: > 1 µg/mL
